What follows are compounds tested against T1, human Werner helicase (WRN-BV08, Uniprot Q14191, amino acids 517-1235 with L1074F point mutation) (Homo sapiens, UniProt Q14191, L1074F) (assay: WRN (BV08) ADP-Glo Assay). Settings: 0.15 nM WRN, 5 μM ATP, 0.1 nM DNA duplex, 15 min preincubation, 60 min at 25° C., pH 7.5, 1% DMSO; read-out: ADP-Glo_hWRN_IC50.
T1 construct: Uniprot Q14191, amino acids 517-1235 with L1074F point mutation; TEV-cleavable 8×His (C, cleaved yes); made in house; host or cells: Sf9 insect cells (baculovirus)
T1 sequence (Q14191 with tags, fused parts or gaps L1074F limits assumed): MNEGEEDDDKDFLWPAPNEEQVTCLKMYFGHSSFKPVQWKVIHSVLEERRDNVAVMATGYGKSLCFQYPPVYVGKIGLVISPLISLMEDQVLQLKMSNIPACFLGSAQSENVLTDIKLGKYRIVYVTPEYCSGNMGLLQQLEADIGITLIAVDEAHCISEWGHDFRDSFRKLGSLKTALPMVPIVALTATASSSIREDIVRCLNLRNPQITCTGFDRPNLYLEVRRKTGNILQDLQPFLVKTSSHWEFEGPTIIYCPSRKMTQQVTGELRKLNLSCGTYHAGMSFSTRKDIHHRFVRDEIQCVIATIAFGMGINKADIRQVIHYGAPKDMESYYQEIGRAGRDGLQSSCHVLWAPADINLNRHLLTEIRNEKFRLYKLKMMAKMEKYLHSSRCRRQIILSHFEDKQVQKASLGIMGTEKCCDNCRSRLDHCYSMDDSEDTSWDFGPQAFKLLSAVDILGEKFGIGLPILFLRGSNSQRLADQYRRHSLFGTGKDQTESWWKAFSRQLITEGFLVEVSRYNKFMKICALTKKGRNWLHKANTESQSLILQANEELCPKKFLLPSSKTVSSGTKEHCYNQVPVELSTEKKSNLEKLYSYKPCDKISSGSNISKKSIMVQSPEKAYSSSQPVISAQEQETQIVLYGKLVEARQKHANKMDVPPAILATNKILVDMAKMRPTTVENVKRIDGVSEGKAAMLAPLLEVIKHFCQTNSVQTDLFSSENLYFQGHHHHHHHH
Assay type: biochemical
Summary of the method: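 ADP-Glo luminescence read-out of ATP hydrolysis. Conditions: 0.15 nM WRN, 5 μM ATP, 0.1 nM DNA duplex, 1% DMSO, 60 min at 25 °C after 15 min compound preincubation. Max/min controls were DMSO and 20 μM NSC-617145; IC50 from four-parameter fit.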

| SMILES | IC50 [µM] |
| --- | --- |
| COc1cc(CN(C(=O)C(C(=O)N(C)C)c2ccc(S(F)(F)(F)(F)F)cc2)C2C=CS(=O)(=O)C2)ccn1 (centres unmarked) [I-159, N′-(1,1-dioxo-2,3-dihydro-1lambda6-thiophen-3-yl)-N′-[(2-methoxypyridin-4-yl)methyl]-N,N-dimethyl-2-[4-(pentafluoro-lambda6-sulfanyl)phenyl]propanediamide] | 0.5 to 5 |
| COCC(C(=O)N(Cc1ccnc(C(C)(C)O)c1)[C@@H]1C=CS(=O)(=O)C1)c1ccc(S(F)(F)(F)(F)F)cc1 (single isomer, unassigned) [I-675] | 10 to 50 |
| CC(C)(O)c1cc(CN(C(=O)Cn2cc(-c3ccc(C(F)(F)F)cc3)cn2)C2C=CS(=O)(=O)C2)ccn1 (single isomer, unassigned) [I-638] | < 0.5 |
| O=C(Cn1cc2ccc(C(F)F)cc2n1)N(Cc1ccncc1)C1C=CS(=O)(=O)C1 (centres unmarked) [I-592, 2-[6-(difluoromethyl)-2H-indazol-2-yl]-N-(1,1-dioxo-2,3-dihydro-1lambda6-thiophen-3-yl)-N-[(pyridin-4-yl)methyl]acetamide] | 10 to 50 |
| COc1cc(CN(C(=O)C(OCc2cnn(C)c2)c2ccc(-c3ccc(F)c(F)c3)cc2F)[C@@H]2C=CS(=O)(=O)C2)ccn1 (single isomer, unassigned) [I-743, (2R*)-N-[(3R)-1,1-dioxo-2,3-dihydro-1lambda6-thiophen-3-yl]-N-[(2-methoxypyridin-4-yl)methyl]-2-[(1-methyl-1H-pyrazol-4-yl)methoxy]-2-{3,3′,4′-trifluoro-[1,1′-biphenyl]-4-yl}acetamide] | > 50 |
| CC(C)(O)c1cc(CN(C(=O)C2Cc3cc(C(F)(F)F)ccc3O2)C2C=CS(=O)(=O)C2)ccn1 (centres unmarked) [I-131, N-(1,1-dioxo-2,3-dihydro-1lambda6-thiophen-3-yl)-N-{[2-(2-hydroxypropan-2-yl)pyridin-4-yl]methyl}-5-(trifluoromethyl)-2,3-dihydro-1-benzofuran-2-carboxamide] | 0.5 to 5 |
| CNC(=O)CC(C(=O)N(Cc1ccnc(OC)c1)C1C=CS(=O)(=O)C1)c1ccc(-c2ccc(F)cc2)cc1 (centres unmarked) [I-574, N-(1,1-dioxo-2,3-dihydro-1lambda6-thiophen-3-yl)-2-{4′-fluoro-[1,1′-biphenyl]-4-yl}-N-[(2-methoxypyridin-4-yl)methyl]-N′-methylbutanediamide] | > 50 |
| O=C(C(c1ccc(-c2ccc(F)cc2)cc1)N1CCCC1=O)N(Cc1ccncc1)C1C=CS(=O)(=O)C1 (centres unmarked) [I-328, N-(1,1-dioxo-2,3-dihydro-1lambda6-thiophen-3-yl)-2-{4′-fluoro-[1,1′-biphenyl]-4-yl}-2-(2-oxopyrrolidin-1-yl)-N-[(pyridin-4-yl)methyl]acetamide] | 10 to 50 |
| COc1nccc(CN(C(=O)Cc2ccc(-n3cccc3C)cc2F)C2C=CS(=O)(=O)C2)n1 (centres unmarked) [I-112, N-(1,1-dioxo-2,3-dihydro-1lambda6-thiophen-3-yl)-2-[2-fluoro-4-(2-methyl-1H-pyrrol-1-yl)phenyl]-N-[(2-methoxypyrimidin-4-yl)methyl]acetamide] | 0.5 to 5 |
| O=C(Cn1cc(-c2ccc(F)c(F)c2)cn1)N(Cc1ccnc(OCCN2CCOCC2)c1)C1C=CS(=O)(=O)C1 (centres unmarked) [I-761, 2-[4-(3,4-difluorophenyl)-1H-pyrazol-1-yl]-N-(1,1-dioxo-2,3-dihydro-1lambda6-thiophen-3-yl)-N-({2-[2-(morpholin-4-yl)ethoxy]pyridin-4-yl}methyl)acetamide] | < 0.5 |
| COc1cc(CN(C(=O)Cn2cc(-c3cccc(F)c3)cn2)C2C=CS(=O)(=O)C2)ccn1 (centres unmarked) [I-54, N-(1,1-dioxo-2,3-dihydro-1lambda6-thiophen-3-yl)-2-[4-(3-fluorophenyl)-1H-pyrazol-1-yl]-N-[(2-methoxypyridin-4-yl)methyl]acetamide] | < 0.5 |
| O=C(Cc1ccc(-c2ccc(F)cc2)cc1F)N(Cc1ccnc(OC2CC2)c1)C1C=CS(=O)(=O)C1 (centres unmarked) [I-110, N-[(2-cyclopropoxypyridin-4-yl)methyl]-2-{3,4′-difluoro-[1,1′-biphenyl]-4-yl}-N-(1,1-dioxo-2,3-dihydro-1lambda6-thiophen-3-yl)acetamide] | 0.5 to 5 |
| COc1cc(CN(C(=O)C(OC)c2ccc(-c3ccc(F)cc3)cc2F)C2C=CS(=O)(=O)C2)ccn1 (single isomer, unassigned) [I-405, (2R*)-2-{3,4′-difluoro-[1,1′-biphenyl]-4-yl}-N-[(3R**)-1,1-dioxo-2,3-dihydro-1lambda6-thiophen-3-yl]-2-methoxy-N-[(2-methoxypyridin-4-yl)methyl]acetamide] | > 50 |

Continued, values first:

| IC50 [µM] | SMILES |
| --- | --- |
| 10 to 50 | O=C(Cc1ccc(-n2cccc2)cc1)N(Cc1ccc2nccn2c1)C1C=CS(=O)(=O)C1 (centres unmarked) [I-361, N-(1,1-dioxo-2,3-dihydro-1lambda6-thiophen-3-yl)-N-({imidazo[1,2-a]pyridin-6-yl}methyl)-2-[4-(1H-pyrrol-1-yl)phenyl]acetamide] |
| > 50 | O=C(Cc1ccc(-n2cccc2)cc1)N(C1C=CS(=O)(=O)C1)C1CCCc2cnccc21 (centres unmarked) [I-471, N-(1,1-dioxo-2,3-dihydro-1lambda6-thiophen-3-yl)-2-[4-(1H-pyrrol-1-yl)phenyl]-N-(5,6,7,8-tetrahydroisoquinolin-5-yl)acetamide] |
| 10 to 50 | O=C(Cc1ccc(C(F)F)cc1)N(Cc1ccncc1)C1C=CS(=O)(=O)C1 (centres unmarked) [I-317, 2-[4-(difluoromethyl)phenyl]-N-(1,1-dioxo-2,3-dihydro-1lambda6-thiophen-3-yl)-N-[(pyridin-4-yl)methyl]acetamide] |
| > 50 | Cc1c(CC(=O)N(Cc2ccncc2)C2C=CS(=O)(=O)C2)nnn1-c1ccccc1 (centres unmarked) [I-434, N-(1,1-dioxo-2,3-dihydro-1lambda6-thiophen-3-yl)-2-(5-methyl-1-phenyl-1H-1,2,3-triazol-4-yl)-N-[(pyridin-4-yl)methyl]acetamide] |
| 0.5 to 5 | O=C(Cc1ccc(-n2cccc2)cc1)N(Cc1nc2cnccc2s1)C1C=CS(=O)(=O)C1 (centres unmarked) [I-165, N-(1,1-dioxo-2,3-dihydro-1lambda6-thiophen-3-yl)-2-[4-(1H-pyrrol-1-yl)phenyl]-N-({[1,3]thiazolo[4,5-c]pyridin-2-yl}methyl)acetamide] |
| < 0.5 | O=C(Cc1ccc(-n2cccc2)cc1)N(Cc1nc(C2CC2)cs1)[C@@H]1C=CS(=O)(=O)C1 [I-83, N-[(4-cyclopropyl-1,3-thiazol-2-yl)methyl]-N-[(3R)-1,1-dioxo-2,3-dihydro-1lambda6-thiophen-3-yl]-2-[4-(1H-pyrrol-1-yl)phenyl]acetamide] |
| < 0.5 | Cc1cccn1-c1ccc(CC(=O)N(Cc2nc3ccccc3s2)C2C=CS(=O)(=O)C2)c(F)c1 (centres unmarked) [I-73, N-[(1,3-benzothiazol-2-yl)methyl]-N-(1,1-dioxo-2,3-dihydro-1lambda6-thiophen-3-yl)-2-[2-fluoro-4-(2-methyl-1H-pyrrol-1-yl)phenyl]acetamide] |
| > 50 | CC(=O)NCC(C(=O)N(Cc1ccncc1)C1C=CS(=O)(=O)C1)c1ccc(-c2ccc(F)cc2)cc1 (centres unmarked) [I-563, N-(1,1-dioxo-2,3-dihydro-1lambda6-thiophen-3-yl)-3-acetamido-2-{4′-fluoro-[1,1′-biphenyl]-4-yl}-N-[(pyridin-4-yl)methyl]propanamide] |
| 10 to 50 | O=C(O)c1ccc(CN(C(=O)Cc2ccc(-n3cccc3)cc2)C2C=CS(=O)(=O)C2)cc1 (centres unmarked) [I-275, 4-{[N-(1,1-dioxo-2,3-dihydro-1lambda6-thiophen-3-yl)-2-[4-(1H-pyrrol-1-yl)phenyl]acetamido]methyl}benzoic acid] |
| 0.5 to 5 | Cc1cccn1-c1ccc(CC(=O)N(Cc2ccnc3c2CCC3O)C2C=CS(=O)(=O)C2)c(F)c1 (centres unmarked) [I-103, N-(1,1-dioxido-2,3-dihydrothiophen-3-yl)-2-(2-fluoro-4-(2-methyl-1H-pyrrol-1-yl)phenyl)-N-((7-hydroxy-6,7-dihydro-5H-cyclopenta[b]pyridin-4-yl)methyl)acetamide] |
| 10 to 50 | Cc1ccn(-c2ccc(CC(=O)N(Cc3ccncc3)C3C=CS(=O)(=O)C3)cc2)c1 (centres unmarked) [I-355, N-(1,1-dioxo-2,3-dihydro-1lambda6-thiophen-3-yl)-2-[4-(3-methyl-1H-pyrrol-1-yl)phenyl]-N-[(pyridin-4-yl)methyl]acetamide] |
| 5 to 10 | Cc1cnc(CN(C(=O)Cc2ccc(-n3cccc3)cc2)C2C=CS(=O)(=O)C2)s1 (centres unmarked) [I-274, N-(1,1-dioxo-2,3-dihydro-1lambda6-thiophen-3-yl)-N-[(5-methyl-1,3-thiazol-2-yl)methyl]-2-[4-(1H-pyrrol-1-yl)phenyl]acetamide] |
| 0.5 to 5 | O=C(Cc1ccc(S(F)(F)(F)(F)F)cc1)N(Cc1ccc(=O)[nH]n1)C1C=CS(=O)(=O)C1 (centres unmarked) [I-817, N-(1,1-dioxo-2,3-dihydro-1lambda6-thiophen-3-yl)-N-[(6-oxo-1,6-dihydropyridazin-3-yl)methyl]-2-[4-(pentafluoro-lambda6-sulfanyl)phenyl]acetamide] |
| 0.5 to 5 | COc1cc(CN(C(=O)Cc2ccc(-n3cccc3)cc2F)C2C=CS(=O)(=O)C2)ccn1 (centres unmarked) [I-95, N-(1,1-dioxo-2,3-dihydro-1lambda6-thiophen-3-yl)-2-[2-fluoro-4-(1H-pyrrol-1-yl)phenyl]-N-[(2-methoxypyridin-4-yl)methyl]acetamide] |
| > 50 | O=C(C1CCc2cc(-n3cccc3)ccc21)N(Cc1ccncc1)C1C=CS(=O)(=O)C1 (centres unmarked) [I-477, N-(1,1-dioxo-2,3-dihydro-1lambda6-thiophen-3-yl)-N-[(pyridin-4-yl)methyl]-5-(1H-pyrrol-1-yl)-2,3-dihydro-1H-indene-1-carboxamide] |
| > 50 | O=C(C(c1ccc(Cl)cc1)c1ccc(Cl)cc1)N(Cc1ccncc1)C1C=CS(=O)(=O)C1 (centres unmarked) [I-526, 2,2-bis(4-chlorophenyl)-N-(1,1-dioxo-2,3-dihydro-1lambda6-thiophen-3-yl)-N-[(pyridin-4-yl)methyl]acetamide] |
